Key:
Format in all cases: binding
[1] = molecular target: T1, MtrCsol (soluble MtrC) (Shewanella oneidensis, UniProt Q8EG34, C453S); assay: […] NMR titration of FMN; conditions: oxidized protein; 20 mM potassium phosphate pH 7.6, 100 mM KCl, 25 °C; slow exchange
T1 construct: soluble form; lipid anchor site and signal peptide replaced by MtrB signal peptide; C-terminal StrepTactin tag; expressed in S. oneidensis delta-mtrC (LS661); decaheme

[2] = molecular target: T2, MtrCsol (soluble MtrC) (Shewanella oneidensis, UniProt Q8EG34, C453A); assay: copurification through anaerobic PD10 size exclusion column, flavin fluorescence; conditions: 50 uM sodium dithionite (reduced FMN and heme), also with 1 mM DTT, no copurification without reductant
T2 construct: soluble form; lipid anchor site and signal peptide replaced by MtrB signal peptide; C-terminal StrepTactin tag; expressed in S. oneidensis delta-mtrC (LS661); decaheme
T2 sequence (Q8EG34 entry or part of it C453A): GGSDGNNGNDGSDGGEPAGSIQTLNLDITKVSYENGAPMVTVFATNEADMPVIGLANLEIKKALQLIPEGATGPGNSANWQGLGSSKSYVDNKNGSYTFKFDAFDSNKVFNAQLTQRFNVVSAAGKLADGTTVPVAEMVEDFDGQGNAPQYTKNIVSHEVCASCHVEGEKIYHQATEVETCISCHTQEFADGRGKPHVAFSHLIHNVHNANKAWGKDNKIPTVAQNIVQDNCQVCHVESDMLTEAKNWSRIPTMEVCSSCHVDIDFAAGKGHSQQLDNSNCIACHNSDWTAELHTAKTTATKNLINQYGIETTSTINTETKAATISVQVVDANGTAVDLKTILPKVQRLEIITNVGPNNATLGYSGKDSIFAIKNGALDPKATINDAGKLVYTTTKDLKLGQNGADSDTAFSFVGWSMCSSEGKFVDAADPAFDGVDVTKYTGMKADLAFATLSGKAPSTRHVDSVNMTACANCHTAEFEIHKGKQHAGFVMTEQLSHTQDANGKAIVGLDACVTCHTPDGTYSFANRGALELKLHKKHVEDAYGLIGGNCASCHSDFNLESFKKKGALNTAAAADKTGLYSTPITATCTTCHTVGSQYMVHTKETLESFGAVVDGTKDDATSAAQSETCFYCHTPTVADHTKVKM

[3] = molecular target: T3, MtrCsol (soluble MtrC) (Shewanella oneidensis, UniProt Q8EG34); assay: as above; conditions: 1 mM DTT (disulfide reduced), no copurification without DTT or with 50 uM dithionite only
T3 construct: soluble form; lipid anchor site and signal peptide replaced by MtrB signal peptide; C-terminal StrepTactin tag; expressed in S. oneidensis delta-mtrC (LS661); decaheme
T3 sequence (Q8EG34 26-671): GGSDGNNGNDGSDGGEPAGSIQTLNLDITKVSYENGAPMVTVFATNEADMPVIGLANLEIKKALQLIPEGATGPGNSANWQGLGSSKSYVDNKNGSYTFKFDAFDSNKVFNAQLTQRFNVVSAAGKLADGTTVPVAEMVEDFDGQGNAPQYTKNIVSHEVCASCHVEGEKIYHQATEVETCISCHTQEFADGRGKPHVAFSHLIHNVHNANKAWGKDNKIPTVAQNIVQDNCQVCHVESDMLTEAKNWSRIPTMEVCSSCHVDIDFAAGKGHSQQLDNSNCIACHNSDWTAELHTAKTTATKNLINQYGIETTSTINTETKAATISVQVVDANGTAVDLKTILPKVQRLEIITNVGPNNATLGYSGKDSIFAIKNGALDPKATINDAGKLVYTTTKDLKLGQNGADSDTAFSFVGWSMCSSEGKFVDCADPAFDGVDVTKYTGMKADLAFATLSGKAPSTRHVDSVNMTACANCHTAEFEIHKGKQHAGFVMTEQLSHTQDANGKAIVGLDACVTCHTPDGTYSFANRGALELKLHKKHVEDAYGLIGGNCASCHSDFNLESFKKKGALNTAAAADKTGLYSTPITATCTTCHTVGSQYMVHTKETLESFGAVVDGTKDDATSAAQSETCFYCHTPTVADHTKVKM

T1 sequence (Q8EG34 entry or part of it C453S): as the sequence (Q8EG34 entry or part of it C453A) above, with A428S counted along it

Cc1cc2nc3c(=O)[nH]c(=O)nc-3n(C[C@H](O)[C@H](O)[C@H](O)COP(=O)(O)O)c2cc1C [FMN]
31P NMR titration of FMN [1]: signal of FMN upon exposure to oxidized MtrCC453Ssol was monitored | copurification through anaerobic PD10 size exclusion column, flavin fluorescence [2]: revealed copurification of FMN with MtrCC453Asol but not MtrCsol | copurification through anaerobic PD10 size exclusion column, flavin fluorescence [3]: showing that MtrCC453Asol would form a similar FMN complex to MtrCsol in the presence of DTT

From PMC9973256, “A Cysteine Pair Controls Flavin Reduction by Extracellular Cytochromes during Anoxic/Oxic Environmental Transitions” (mBio, 2023)
